Inhibition data for 1 compound are collected here from PMC6934184, “Selective DNA-PKcs inhibition extends the therapeutic index of localized radiotherapy and chemotherapy” (The Journal of Clinical Investigation, 2019).

This assay concerns the target T1, KIT (Homo sapiens, UniProt P10721).
T1 construct: purchased Thermo Fisher Scientific (Life Technologies) SelectScreen
The assay is described as follows: SelectScreen Z'LYTE. It counts as biochemical. A digest of the protocol:
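SelectScreen broad panel; activity (Z'LYTE, Adapta) plus binding formats. ATP: Km app for CSF1R Z'LYTE; 10 for CAMK1 Adapta. Readout = % per kinase.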

T1 sequence (P10721 26-976): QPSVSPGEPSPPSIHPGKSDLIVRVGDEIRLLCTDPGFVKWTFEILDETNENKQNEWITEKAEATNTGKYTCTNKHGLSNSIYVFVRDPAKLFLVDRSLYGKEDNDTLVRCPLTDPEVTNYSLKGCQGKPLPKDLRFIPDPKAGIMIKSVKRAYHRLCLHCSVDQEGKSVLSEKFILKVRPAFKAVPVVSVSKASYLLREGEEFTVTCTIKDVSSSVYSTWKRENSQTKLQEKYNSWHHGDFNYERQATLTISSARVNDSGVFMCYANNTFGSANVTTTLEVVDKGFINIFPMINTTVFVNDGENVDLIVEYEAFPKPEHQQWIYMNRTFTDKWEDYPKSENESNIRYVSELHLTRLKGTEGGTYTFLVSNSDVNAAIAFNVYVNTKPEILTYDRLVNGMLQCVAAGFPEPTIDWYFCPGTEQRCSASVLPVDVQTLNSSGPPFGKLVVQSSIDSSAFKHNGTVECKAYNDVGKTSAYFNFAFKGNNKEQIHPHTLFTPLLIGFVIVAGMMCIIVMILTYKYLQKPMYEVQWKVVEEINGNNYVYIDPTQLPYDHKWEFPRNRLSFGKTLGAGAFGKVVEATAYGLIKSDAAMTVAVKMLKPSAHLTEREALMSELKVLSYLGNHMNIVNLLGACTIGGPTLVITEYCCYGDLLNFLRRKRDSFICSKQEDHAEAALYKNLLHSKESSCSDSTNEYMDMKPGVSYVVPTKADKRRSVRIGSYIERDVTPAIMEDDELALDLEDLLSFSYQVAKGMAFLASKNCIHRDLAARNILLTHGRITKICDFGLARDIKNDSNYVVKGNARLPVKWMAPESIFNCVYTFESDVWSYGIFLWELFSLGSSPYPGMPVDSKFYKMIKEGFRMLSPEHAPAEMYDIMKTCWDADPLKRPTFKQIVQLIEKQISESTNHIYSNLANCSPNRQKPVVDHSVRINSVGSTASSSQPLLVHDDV

For `CN(C(=O)CN1CCOCC1)c1ccc2sc3c(-c4cccc5c(=O)cc(N6CC7CCC(C6)O7)oc45)cccc3c2c1` [NU5455], at 1 µM the inhibition was 5.3%.

The term inhibition denotes the relative decrease from the control value, in per cent.
